# T1: CYP4F2 (Homo sapiens, UniProt P78329)
# T1 construct: purchased Corning Gentest
# T1 sequence (P78329 5-520): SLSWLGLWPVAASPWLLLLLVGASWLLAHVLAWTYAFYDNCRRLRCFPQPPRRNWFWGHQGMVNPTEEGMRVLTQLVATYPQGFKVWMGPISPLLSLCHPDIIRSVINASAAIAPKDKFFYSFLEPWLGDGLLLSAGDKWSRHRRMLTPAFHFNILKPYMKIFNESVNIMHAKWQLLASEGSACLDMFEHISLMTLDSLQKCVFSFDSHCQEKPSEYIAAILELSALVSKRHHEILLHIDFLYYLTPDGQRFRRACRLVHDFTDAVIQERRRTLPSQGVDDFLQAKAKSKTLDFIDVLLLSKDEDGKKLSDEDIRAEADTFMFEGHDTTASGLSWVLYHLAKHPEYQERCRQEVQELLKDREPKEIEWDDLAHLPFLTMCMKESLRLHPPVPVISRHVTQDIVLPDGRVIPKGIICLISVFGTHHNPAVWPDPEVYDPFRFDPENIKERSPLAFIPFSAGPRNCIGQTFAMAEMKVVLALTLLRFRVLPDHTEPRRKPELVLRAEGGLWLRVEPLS
# Assays:
# [1] = target: T1, CYP4F2; assay: CYP4F2-mediated drug interaction (inhibition of CYP4F2); format: in vitro ADME; details: substrate Compound-3 1 μM, CYP4F2 10 nM, 10 min, M4 formation; read-out: IC50, inhibition of CYP4F2 mediated metabolism of Compound-3
# Protocol: CYP4F2-mediated drug interactions were examined in two separate setting: pafuramidine as the substrate and Compound-3 as the inhibitor; and Compound-3 as the substrate and pafuramidine as the inhibitor. The reaction system contained 10 nM CYP4F2, 100 mM phosphate buffer (pH 7.4), 1 mM NADPH, and substrate (pafuramidine 1.5 μM or Compound-3 1 μM). Inhibitor (Compound-3 or pafuramidine) concentrations ranged from 0 to 10,000 nM. The incubation time was 5 min for pafuramidine and 10 min for Compound-3. Incubation temperature was 37 °C. LC-MS/MS analysis was performed as described above for the levels of DB775 or M4 (carboxylic acid metabolite of Compound-3).
# [2] = Metabolite identification by UPLC/Triple TOF MS in human liver microsomes; format: in vitro ADME; parameters: key: √: metabolites were detected by high-resolution mass spectrometry; details: Compound-3 10 μM, 1 mg/mL microsomes, NADPH, 60 min, HRMS
# Protocol: (§1) For metabolite identification, a higher concentration of Compound-3 (10 μM) was incubated with liver microsomes (1 mg/mL) in the presence of NADPH (1 mM) and primary human hepatocytes at a density of 1 × 10^6 cell/mL. Samples were collected at 0 min and 60 min with the addition of ice-cold acetonitrile. After vortexing and centrifugation, the supernatant was transferred into a new tube and evaporated to dryness. The samples were then reconstituted in 100 μL of water and methanol (v/v, 9:1). An aliquot of 10 μL of reconstituted solution was injected into UPLC/Triple TOF 5600^+ MS for metabolite identification.
# (§2) Identification of Compound-3 metabolites was carried out using Acquity UPLC/Triple TOF 5600^+ system. Chromatographic separation for Compound-3 and its metabolites were achieved by an Acquity UPLC HSS T3 column (100 × 2.1 mm i.d., […]; Waters Corp.) maintained at 40 °C. The mobile phase was a mixture of 0.02% formic acid in 5 mM ammonium acetate (A) and methanol (B). The gradient elution was started from 2% B and maintained for 4 min, then increased linearly to 75% B over the next 4 min and maintained for 8 min. […] The flow rate was 0.4 mL/min and the eluent was monitored by UV detection at 280 nm.
# (§3) For mass detection, a Triple TOF 5600^+ mass spectrometer (AB Sciex, Framingham, MA, USA) was operated in positive ion electrospray (ES-positive) mode with the source temperature at 500 °C and scan range from m/z 100 to 1000 Da. Other parameters were set as follows: ion spray voltage, 5500 V; decluttering potential, 80 V; curtain gas, 40 psi; ion source gas 1, 55 psi; and ion source gas 2, 50 psi. Collision energies of 25 and 65 eV were used for TOF MS and product ion scans, respectively, and a collision energy spread of 20 was used in the MS/MS analysis. Information-dependent acquisition (IDA), together with real-time multiple mass defect filter, was used to trigger acquisition of MS/MS spectra.
# [3] = Metabolite identification by UPLC/Triple TOF MS in rat liver microsomes; format: in vitro ADME; parameters: key: √: metabolites were detected by high-resolution mass spectrometry; details: Compound-3 10 μM, 1 mg/mL microsomes, NADPH, 60 min, HRMS
# Protocol: as §1, §2, §3
# [4] = Metabolite identification by UPLC/Triple TOF MS in human intestinal microsomes; format: in vitro ADME; parameters: key: √: metabolites were detected by high-resolution mass spectrometry; details: Compound-3 10 μM, NADPH, 60 min, HRMS
# Protocol: as §1, §2, §3
# [5] = Metabolite identification by UPLC/Triple TOF MS in rat intestinal microsomes; format: in vitro ADME; parameters: key: √: metabolites were detected by high-resolution mass spectrometry; details: Compound-3 10 μM, NADPH, 60 min, HRMS
# [6] = Metabolite identification by UPLC/Triple TOF MS in human hepatocytes; format: in vitro ADME; parameters: key: √: metabolites were detected by high-resolution mass spectrometry; details: Compound-3 10 μM, 1 × 10^6 cell/mL, 60 min, HRMS
# Protocol: as §1, §2, §3
# [7] = target: T1, CYP4F2; assay: Reaction phenotyping with recombinant CYP4F2; format: in vitro ADME; details: Compound-3 1 μM with recombinant CYP4F2 50 nM, NADPH, 37 °C (Figure S2)
# Protocol: Compound-3 was incubated separately with human cDNA-expressed cytochrome P450s (CYP1A2, CYP2B6, CYP2C8, CYP2C9, CYP2C19, CYP2D6, CYP3A4, CYP4A11, CYP4F2 and CYP4F3). The incubation mixtures contained individual CYP isoenzymes (50 nM), potassium phosphate buffer (100 mM, pH 7.4), NADPH (1 mM), and Compound-3 (1 µM). The final volume of the incubation mixture was 50 µL. Before the start of the incubation, reaction mixtures were warmed up at 37 °C for 10 min. The reaction was initiated with the addition of NADPH and the incubations were performed at 37 °C in a water bath. […] Control samples without NADPH but substrates were included. The samples were then centrifuged and aliquots of 10 μL of the supernatants were transferred onto LC-MS/MS for the analysis of Compound-3 and M4 (carboxylic acid) levels.
# The following are available online. Figure S1. Gemcitabine Formation from Compound-3 Hydrolysis as a function of alkaline phosphatase protein concentrations. Compound-3 (1 μM) was incubated with alkaline phosphatase concentrations ranging from 0.01–0.2 mg/mL at 37 °C (n = 3). Figure S2. Metabolites of Compound-3 in human recombinant CYP4F2. Compound-3 (1 μM) was incubated with human recombinant CYP4F2 (50 nM) in the presence of NADPH at 37 °C (n = 3).
# [8] = test system: Compound-3 metabolism in human liver microsomes; assay: Inhibition of Compound-3 metabolism in HLM by selective chemical inhibitors of CYP isozymes; format: in vitro ADME; details: HLM 0.2 mg/mL, 1 μM Compound-3; HET-0016 1 µM, ketoconazole 1 µM, quercetin 10 µM, other inhibitors at the concentrations of b45
# Protocol: Incubation contained 0.2 mg/mL human liver microsomes, 100 mM phosphate buffer (pH 7.4), 1 mM NADPH, 1 μM Compound-3, and inhibitors at specified concentrations. Compound-3 remaining was calculated based on concentrations after incubation in the presence or absence of respective inhibitors.
# [9] = test system: alkaline phosphatase; assay: Hydrolysis of Compound-3 by alkaline phosphatase (gemcitabine formation); format: in vitro ADME; parameters: key to detected in matrix ALP: √: metabolites were detected by high-resolution mass spectrometry; details: incubation of Compound-3 with alkaline phosphatase, HRMS
# Protocol: Compound-3 was incubated with alkaline phosphatase, and the linearity of gemcitabine formation as a function of time and protein concentration was first examined. The reaction mixtures consisted of alkaline phosphatase, 100 mM phosphate buffer (pH 7.4) and Compound-3 (10 μM). The final volume of the incubation mixture was 200 μL. The mixture was warmed up at 37 °C for 2 min prior to the initiation of the reaction with the addition of the enzyme. At specified time points, 25 μL of the incubation mixtures was added to 100 μL cold acetonitrile containing the internal standard to terminate the reaction. Levels of gemcitabine were determined by LC-MS/MS. […] Compound-3 was tested at concentrations ranging from 0 to 200 μM. Kinetic parameters of Compound-3 in alkaline phosphatase were calculated using GraphPad Prism (Version 6.0, GraphPad Software Inc., San Diego, CA) and nonlinear regression analysis. Equation used was as the following (the Michaelis-Menten equation):V = (Vmax × [S])/(Km + [S])(1) where V is the rate of metabolite formation, Vmax is the maximum velocity, Km is the Michaelis constant (substrate concentration at 0.5 Vmax), and [S] is the substrate concentration.
# [10] = substrate: CCCCCCCCCCCCCCCCCCOCCOP(=O)(O)OCC1OC(n2ccc(N)nc2=O)C(F)(F)C1O; assay: Formation kinetics of M4 (carboxylic acid) from Compound-3 by CYP4F2; format: in vitro ADME, human; details: other: CYP4F2 10 nM, 10 min, substrate inhibition model, estimated; pH 7.4; 37.0 °C
# Protocol: To investigate the formation kinetics of carboxylic acid metabolite (M4) from Compound-3, varying concentrations of Compound-3 (0–10 µM) were incubated with 10 nM CYP4F2 and 1 mM NADPH in 100 mM phosphate buffer (pH 7.4). The reactions were carried at 37 °C for 10 min and terminated with the addition of ice-cold acetonitrile containing the internal standard. Samples were then centrifuged, and aliquots of 10 μL of the supernatants were analyzed by LC-MS/MS for M4 levels.
# Kinetic parameters of Compound-3 in recombinant human CYP4F2 were calculated using Enzyme Kinetics Modules of SigmaPlot (Version 14.0, Systat Software, San Jose, CA, USA). An uncompetitive substrate inhibition equation was also used:V = (Vmax × [S])/{Km + [S] × (1 + [S]/Ki)}(2) where Ki is the disassociation constant describing the inhibitor-enzyme interaction.
detected in matrix HLM [2],detected in matrix HIM [4],detected in matrix RIM [5],detected in matrix Human Hepatocytes [6],incubation time at which metabolite formation peaked [7] [min],Molecule,further results
,,,,,"CONC(=N)c1ccc(-c2ccc(-c3ccc(C(=N)NOC)cc3)o2)cc1 [pafuramidine, reference compound]",IC50 [1]: 240 nM
√,√,√,√,60,Nc1ccn(C2OC(COP(=O)(O)OCCOCCCCCCCCCCCCCCCCCC(=O)O)C(O)C2(F)F)c(=O)n1 (stereo not shown) [Compound M4],detected in matrix RLM [3]: √
√,√,√,√,5,Nc1ccn(C2OC(COP(=O)(O)OCCOCCCCCCCCCCCCCCCCCCO)C(O)C2(F)F)c(=O)n1 (stereo not shown) [Compound M3],detected in matrix RLM [3]: √
,,,,,O=c1c(O)c(-c2ccc(O)c(O)c2)oc2cc(O)cc(O)c12 [quercetin],inhibition of Compound-3 metabolism in HLM [8]: moderate inhibition
√,√,√,√,5,Nc1ccn(C2OC(COP(=O)(O)OCCOCCCCCCCCCCCCCCCCCC=O)C(O)C2(F)F)c(=O)n1 (stereo not shown) [Compound M2],
,,,,,CC(=O)N1CCN(c2ccc(OCC3COC(Cn4ccnc4)(c4ccc(Cl)cc4Cl)O3)cc2)CC1 (stereo not shown) [ketoconazole],inhibition of Compound-3 metabolism in HLM [8]: moderate inhibition
,,,,,"Nc1ccn([C@@H]2O[C@H](CO)[C@@H](O)C2(F)F)c(=O)n1 [Gemcitabine, 2′,2′-difluorodeoxycytidine]",detected in matrix ALP [9]: √
,,,,,"CYP4F2 (Homo sapiens) (protein, purchased Corning Gentest) SLSWLGLWPVAASPWLLLLLVGASWLLAHVLAWTYAFYDNCRRLRCFPQPPRRNWFWGHQGMVNPTEEGMRVLTQLVATYPQGFKVWMGPISPLLSLCHPDIIRSVINASAAIAPKDKFFYSFLEPWLGDGLLLSAGDKWSRHRRMLTPAFHFNILKPYMKIFNESVNIMHAKWQLLASEGSACLDMFEHISLMTLDSLQKCVFSFDSHCQEKPSEYIAAILELSALVSKRHHEILLHIDFLYYLTPDGQRFRRACRLVHDFTDAVIQERRRTLPSQGVDDFLQAKAKSKTLDFIDVLLLSKDEDGKKLSDEDIRAEADTFMFEGHDTTASGLSWVLYHLAKHPEYQERCRQEVQELLKDREPKEIEWDDLAHLPFLTMCMKESLRLHPPVPVISRHVTQDIVLPDGRVIPKGIICLISVFGTHHNPAVWPDPEVYDPFRFDPENIKERSPLAFIPFSAGPRNCIGQTFAMAEMKVVLALTLLRFRVLPDHTEPRRKPELVLRAEGGLWLRVEPLS",Km [10]: 0.69 µM

# — PMC6100113, “Involvement of CYP4F2 in the Metabolism of a Novel Monophosphate Ester Prodrug of Gemcitabine and Its Interaction Potential In Vitro” (Molecules : A Journal of Synthetic Chemistry and Natural …, 2018)
